Legend:
Type in all cases: cell-based
[1] = target: T1, human TLR9 (Homo sapiens, UniProt Q9NR96); assay: TLR9 inhibition reporter assay (HEK-Blue cells, SEAP reporter, ODN2006 stimulation); conditions: HEK-Blue cells overexpressing human TLR9, SEAP reporter, ODN2006 5 nM
T1 construct: host or cells: HEK-Blue cells (HEK293-derived reporter line)
T1 sequence (Q9NR96 26-1032): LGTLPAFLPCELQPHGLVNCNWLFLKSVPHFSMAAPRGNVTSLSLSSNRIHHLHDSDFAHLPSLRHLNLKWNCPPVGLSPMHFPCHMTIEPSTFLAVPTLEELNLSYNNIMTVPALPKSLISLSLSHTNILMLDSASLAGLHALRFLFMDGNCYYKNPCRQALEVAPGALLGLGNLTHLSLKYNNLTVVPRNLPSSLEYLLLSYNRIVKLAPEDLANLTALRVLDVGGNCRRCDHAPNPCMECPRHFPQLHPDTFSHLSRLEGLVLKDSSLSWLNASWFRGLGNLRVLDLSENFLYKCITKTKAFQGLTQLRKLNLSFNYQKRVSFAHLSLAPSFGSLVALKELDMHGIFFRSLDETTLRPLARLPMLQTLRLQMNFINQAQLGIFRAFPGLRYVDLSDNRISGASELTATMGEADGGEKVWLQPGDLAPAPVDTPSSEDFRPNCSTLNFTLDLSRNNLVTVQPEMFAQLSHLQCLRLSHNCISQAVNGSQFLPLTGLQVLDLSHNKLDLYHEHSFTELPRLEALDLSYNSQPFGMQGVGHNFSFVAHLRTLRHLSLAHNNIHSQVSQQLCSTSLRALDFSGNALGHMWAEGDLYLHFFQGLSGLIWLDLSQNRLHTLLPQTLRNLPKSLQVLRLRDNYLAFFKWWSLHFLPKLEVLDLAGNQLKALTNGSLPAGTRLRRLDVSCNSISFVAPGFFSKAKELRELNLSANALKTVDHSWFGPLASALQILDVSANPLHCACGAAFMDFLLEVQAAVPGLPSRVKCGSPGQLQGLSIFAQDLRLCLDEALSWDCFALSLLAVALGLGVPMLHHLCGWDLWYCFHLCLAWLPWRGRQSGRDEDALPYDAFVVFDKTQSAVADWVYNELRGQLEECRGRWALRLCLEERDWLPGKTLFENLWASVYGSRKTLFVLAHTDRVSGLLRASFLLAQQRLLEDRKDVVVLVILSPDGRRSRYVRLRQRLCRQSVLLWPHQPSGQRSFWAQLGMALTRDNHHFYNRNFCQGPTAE
Summary of the method: (§1)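 After 22 h at 37 °C, SEAP secretion was measured from human TLR7-, TLR8- or TLR9-expressing HEK-Blue reporter cells given compound (0.05 nM–50 μM) 30 min before agonist: 7.5 μM gardiquimod, 15.9 μM R848 or 5 nM ODN2006 respectively. Percent inhibition referenced to agonist-plus-DMSO and known-inhibitor wells.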

[2] = target: T2, human TLR8 (Homo sapiens, UniProt Q9NR97); assay: TLR8 inhibition reporter assay (HEK-Blue cells, SEAP reporter, R848 stimulation); conditions: HEK-Blue cells overexpressing human TLR8, SEAP reporter, R848 15.9 μM
T2 construct: host or cells: HEK-Blue cells (HEK293-derived reporter line)
T2 sequence (Q9NR97 27-1041): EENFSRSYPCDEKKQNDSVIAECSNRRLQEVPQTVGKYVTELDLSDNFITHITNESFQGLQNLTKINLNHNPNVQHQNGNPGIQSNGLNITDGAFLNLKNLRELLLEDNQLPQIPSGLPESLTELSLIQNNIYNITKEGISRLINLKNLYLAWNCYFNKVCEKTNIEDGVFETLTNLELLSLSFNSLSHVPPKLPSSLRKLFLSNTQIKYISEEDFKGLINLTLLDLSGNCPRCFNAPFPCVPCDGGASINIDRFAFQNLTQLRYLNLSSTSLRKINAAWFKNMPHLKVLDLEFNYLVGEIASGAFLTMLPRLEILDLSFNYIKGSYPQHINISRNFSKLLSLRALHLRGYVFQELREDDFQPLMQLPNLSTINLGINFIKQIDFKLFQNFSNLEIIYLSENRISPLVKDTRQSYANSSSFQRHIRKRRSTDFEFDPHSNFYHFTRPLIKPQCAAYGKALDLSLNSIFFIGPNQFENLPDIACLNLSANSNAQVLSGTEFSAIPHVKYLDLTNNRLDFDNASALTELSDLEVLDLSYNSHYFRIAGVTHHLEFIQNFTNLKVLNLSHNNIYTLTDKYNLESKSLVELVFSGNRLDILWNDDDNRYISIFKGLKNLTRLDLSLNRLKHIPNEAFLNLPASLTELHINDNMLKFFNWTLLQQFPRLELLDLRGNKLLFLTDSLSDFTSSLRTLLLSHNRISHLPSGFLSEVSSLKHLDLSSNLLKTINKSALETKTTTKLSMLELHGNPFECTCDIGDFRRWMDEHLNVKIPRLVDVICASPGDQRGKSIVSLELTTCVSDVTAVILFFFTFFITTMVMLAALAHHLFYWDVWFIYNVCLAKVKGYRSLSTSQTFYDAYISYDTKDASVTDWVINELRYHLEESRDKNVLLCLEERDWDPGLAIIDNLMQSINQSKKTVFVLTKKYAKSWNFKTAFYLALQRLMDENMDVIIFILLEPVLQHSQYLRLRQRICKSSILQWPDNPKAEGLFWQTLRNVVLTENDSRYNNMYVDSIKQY
Summary of the method: as §1

[3] = target: T3, human TLR7 (Homo sapiens, UniProt Q9NYK1); assay: TLR7 inhibition reporter assay (HEK-Blue cells, SEAP reporter, gardiquimod stimulation); conditions: HEK-Blue cells overexpressing human TLR7, SEAP reporter, gardiquimod 7.5 μM
T3 construct: host or cells: HEK-Blue cells (HEK293-derived reporter line)
T3 sequence (Q9NYK1 27-1049): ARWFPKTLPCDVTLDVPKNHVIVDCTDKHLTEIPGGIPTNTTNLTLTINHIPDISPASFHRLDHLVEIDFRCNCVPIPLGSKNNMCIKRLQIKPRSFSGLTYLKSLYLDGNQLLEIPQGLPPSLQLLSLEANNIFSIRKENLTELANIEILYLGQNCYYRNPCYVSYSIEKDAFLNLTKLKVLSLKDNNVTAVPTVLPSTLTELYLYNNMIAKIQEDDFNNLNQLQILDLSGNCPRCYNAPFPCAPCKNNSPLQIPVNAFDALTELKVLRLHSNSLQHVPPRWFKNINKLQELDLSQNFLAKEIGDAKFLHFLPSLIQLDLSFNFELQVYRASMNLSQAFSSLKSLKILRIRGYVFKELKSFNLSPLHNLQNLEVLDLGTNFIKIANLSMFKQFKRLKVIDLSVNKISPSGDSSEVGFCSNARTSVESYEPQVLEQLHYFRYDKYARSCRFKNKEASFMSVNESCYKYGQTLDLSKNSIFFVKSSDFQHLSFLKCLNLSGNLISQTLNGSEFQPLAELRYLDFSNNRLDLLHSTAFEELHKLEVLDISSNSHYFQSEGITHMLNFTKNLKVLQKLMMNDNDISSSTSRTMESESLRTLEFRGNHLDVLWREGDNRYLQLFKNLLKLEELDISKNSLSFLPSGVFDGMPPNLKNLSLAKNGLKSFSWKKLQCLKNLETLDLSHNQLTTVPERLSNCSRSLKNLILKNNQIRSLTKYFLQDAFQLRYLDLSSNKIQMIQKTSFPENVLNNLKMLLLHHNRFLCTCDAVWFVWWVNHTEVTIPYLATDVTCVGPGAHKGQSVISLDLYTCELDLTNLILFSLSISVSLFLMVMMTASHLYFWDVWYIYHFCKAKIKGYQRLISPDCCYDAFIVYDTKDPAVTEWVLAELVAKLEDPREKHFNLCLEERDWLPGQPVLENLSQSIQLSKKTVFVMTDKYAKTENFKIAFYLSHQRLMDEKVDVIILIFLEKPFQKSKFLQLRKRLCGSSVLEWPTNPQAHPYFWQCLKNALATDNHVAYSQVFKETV
Summary of the method: as §1

IC50 [1] [nM] | IC50 [2] [nM] | IC50 [3] [nM] | SMILES
1000 to 50000 | 1000 to 50000 | 1000 to 50000 | Cc1cc(-c2[nH]c3ccc(C4CCN(C(=O)[C@@H]5C[C@@H](O)CN5)CC4)cc3c2C(C)C)cc2nccn12 [Example 539, ((2S,4R)-4-hydroxypyrrolidin-2-yl)(4-(3-isopropyl-2-(5-methylimidazo[1,2-a]pyridin-7-yl)-1H-indol-5-yl)piperidin-1-yl)methanone]
1000 to 50000 | 100 to 1000 | < 100 | Cc1cc2nnnn2cc1-c1[nH]c2ccc(C3CCN(C4COC4)CC3)cc2c1C(C)C [Example 742, 6-(3-isopropyl-5-(1-(oxetan-3-yl)piperidin-4-yl)-1H-indol-2-yl)-7-methyltetrazolo[1,5-a]pyridine]
1000 to 50000 | 1000 to 50000 | 100 to 1000 | Cc1cc2cc(-c3[nH]c4ccc(C5CCN(CC(=O)N(C)C)CC5)cc4c3C(C)C)ccn2n1 [Example 323, 2-(4-(3-isopropyl-2-(2-methylpyrazolo[1,5-a]pyridin-5-yl)-1H-indol-5-yl)piperidin-1-yl)-N,N-dimethylacetamide]
1000 to 50000 | 100 to 1000 | < 100 | CNC(=O)CN1CCC(c2ccc3[nH]c(-c4cc(C)c5oc(C)nc5c4)c(C(C)C)c3c2)CC1 [Example 339, 2-(4-(2-(2,7-dimethylbenzo[d]oxazol-5-yl)-3-isopropyl-1H-indol-5-yl)piperidin-1-yl)-N-methylacetamide]
1000 to 50000 | < 100 | < 100 | Cc1ccnc2c1c(-c1[nH]c3ccc(C4CCN(C5CCOCC5)CC4)cc3c1C(C)C)cn2C [Example 689, 3-(3-isopropyl-5-(1-(tetrahydro-2H-pyran-4-yl)piperidin-4-yl)-1H-indol-2-yl)-1,4-dimethyl-1H-pyrrolo[2,3-b]pyridine]
> 50000 | 100 to 1000 | < 100 | Cc1cc(-c2[nH]c3ccc(C4CCN(S(=O)(=O)CCO)CC4)cc3c2C(C)C)cn2nnnc12 [Example 616, 2-((4-(3-isopropyl-2-(8-methyltetrazolo[1,5-a]pyridin-6-yl)-1H-indol-5-yl)piperidin-1-yl)sulfonyl)ethan-1-ol]
1000 to 50000 | < 100 | < 100 | Cc1cc(-c2[nH]c3ccc(C4CCN(C5COC5)CC4)cc3c2C(C)C)cc2ccnn12 [Example 720, 5-(3-isopropyl-5-(1-(oxetan-3-yl)piperidin-4-yl)-1H-indol-2-yl)-7-methylpyrazolo[1,5-a]pyridine]
1000 to 50000 | < 100 | < 100 | COc1cc(-c2[nH]c3ccc(C4CCN(CC(=O)N(C)C)CC4)cc3c2C(C)C)cc2nc(C)nn12 [Example 348, 2-(4-(3-isopropyl-2-(5-methoxy-2-methyl-[1,2,4]triazolo[1,5-a]pyridin-7-yl)-1H-indol-5-yl)piperidin-1-yl)-N,N-dimethylacetamide]
100 to 1000 | < 100 | 1000 to 50000 | CC(C)c1c(-c2ccnc3[nH]ncc23)[nH]c2ccc(C3CCN(C4CCCNCC4)CC3)cc12 (stereo not drawn) [Example 828, 4-(5-(1-(azepan-4-yl)piperidin-4-yl)-3-isopropyl-1H-indol-2-yl)-1H-pyrazolo[3,4-b]pyridine]
1000 to 50000 | < 100 | < 100 | CC(C)c1c(-c2cnc3c(cnn3C)c2)[nH]c2ccc(C3CCN(CC(C)(C)O)CC3)cc12 [Example 764, 1-(4-(3-isopropyl-2-(1-methyl-1H-pyrazolo[3,4-b]pyridin-5-yl)-1H-indol-5-yl)piperidin-1-yl)-2-methylpropan-2-ol]
1000 to 50000 | < 100 | < 100 | CCOc1cc(-c2[nH]c3ccc(C4CCN(CC(=O)N(C)C)CC4)cc3c2C(C)C)cc2ncnn12 [Example 350, 2-(4-(2-(5-ethoxy-[1,2,4]triazolo[1,5-a]pyridin-7-yl)-3-isopropyl-1H-indol-5-yl)piperidin-1-yl)-N,N-dimethylacetamide]
1000 to 50000 | < 100 | < 100 | CC(C)c1c(-c2ccc3ncsc3c2)[nH]c2ccc(C3CCN(CC(=O)N(C)C)CC3)cc12 [Example 298, 2-(4-(2-(benzo[d]thiazol-6-yl)-3-isopropyl-1H-indol-5-yl)piperidin-1-yl)-N,N-dimethylacetamide]
1000 to 50000 | < 100 | < 100 | Cc1cc(-c2[nH]c3ccc(C4CCNCC4)cc3c2C(C)C)cc2cn(C)nc12 [Example 138, 5-(3-isopropyl-5-(piperidin-4-yl)-1H-indol-2-yl)-2,7-dimethyl-2H-indazole]
1000 to 50000 | < 100 | 100 to 1000 | CCc1c(-c2ccnc3[nH]ncc23)[nH]c2ccc(C3CCN(C(=O)CN)CC3)cc12 [Example 461, 2-amino-1-(4-(3-ethyl-2-(1H-pyrazolo[3,4-b]pyridin-4-yl)-1H-indol-5-yl)piperidin-1-yl)ethan-1-one]

Source: US11739098B2 (BRISTOL-MYERS SQUIBB COMPANY, priority 2017, dated 2023)
